{"source": "paper PMC7946689", "about": "“Galactose-Modified PH-Sensitive Niosomes for Controlled Release and Hepatocellular Carcinoma Target Delivery of Tanshinone IIA” (AAPS PharmSciTech, 2021)", "key": {"[1]": {"assay": "Pharmacokinetics after tail vein injection", "format": "in vivo", "conditions": "SD rats", "description": "Twelve male SD rats (weighing 200–250 g) were randomly divided into three groups. Rats were fasted for 12 h but drank water freely before administration ([38]). The first, second, and third groups were injected with Free TanIIA, TanIIA-NSVs, and Gal-pH-TanIIA-NSVs at an equivalent tanshinone IIA dose of 10 mg/kg via tail vein, respectively. Orbital blood was taken at 0.083, 0.25, 0.5, 1, 2, 4, 6, 8, 12, and 24 h after administration. Blood was transferred to a centrifuge tube coated with heparin sodium and centrifuged at 9391.2×g for 5 min to prepare plasma that was stored at −20°C ([39]).\nAfter treatment of plasma and tissue homogenate, the obtained supernatant was concentrated by nitrogen blowing and determined by HPLC."}, "[2]": {"test_system": "A2780 cells", "assay": "CCK8 cell viability assay", "format": "cell-based", "conditions": "Homo sapiens, 24 h, equivalent tanshinone IIA dose", "description": "(§1) A2780, HCT8, HepG2, and Huh7 cells were seeded in 96-well plates at a density of 4 × 10^4 cells per well for 24 h ([32]) and treated with complete medium containing a series of blank niosomes (NSVs, Gal-NSVs, pH-NSVs, Gal-pH-NSVs) for 24 h. Subsequently, the culture medium was discarded, and CCK8 solution was added to the cells. Then, cells were continuously cultured for 2 h at 37°C. The absorbance value of each well was measured at 450 nm by a microplate spectrophotometer (BIO-RAD xMark, USA). The control group and blank group were included in the experiment. […] Cell viability was calculated according to the following formula ([33]): Cell viability%=Atest−Ao/Acontrast−Ao×100%\n(§2) In the formula, Atest is the absorbance value of the test group, Acontrast is the absorbance value of the control group, and A0 is the absorbance value of the blank group.\n(§3) A2780, HCT8, HepG2, and Huh7 cells were seeded in 96-well plates for 24 h and treated with serial concentrations of tanshinone IIA solution (Free TanIIA) and tanshinone IIA-loaded niosomes (TanIIA-NSVs, Gal-TanIIA-NSVs, pH-TanIIA-NSVs, Gal-pH-TanIIA-NSVs) at an equivalent tanshinone IIA dose for 24 h. Then, the culture medium was discarded, CCK8 solution was added to the cells, and cells were continuously cultured for 2 h at 37°C. The absorbance value of each well was measured at 450 nm by a microplate spectrophotometer ([33])."}, "[3]": {"test_system": "Huh7 cells", "assay": "CCK8 cell viability assay", "format": "cell-based", "conditions": "Homo sapiens, Huh-7, 24 h, equivalent tanshinone IIA dose", "description": "as §1, §2, §3"}, "[4]": {"test_system": "HCT8 cells", "assay": "CCK8 cell viability assay", "format": "cell-based", "conditions": "Homo sapiens, HCT-8, 24 h, equivalent tanshinone IIA dose", "description": "as §1, §2, §3"}, "[5]": {"test_system": "HepG2 cells", "assay": "CCK8 cell viability assay", "format": "cell-based", "conditions": "Homo sapiens, 24 h, equivalent tanshinone IIA dose", "description": "as §1, §2, §3"}, "[6]": {"assay": "Biodistribution after tail vein injection", "format": "in vivo", "conditions": "SD rats, 10 mg/kg, all time periods tested (0.083, 4, 12 h)", "description": "Twenty-seven male SD rats were randomly divided into three groups and administered in the same way. Rats were sacrificed after 0.083, 4, and 12 h, respectively, and heart, liver, spleen, lung, and kidney tissues were collected immediately. Any residual blood on the tissue was washed with precooled normal saline, and the washed tissue was blotted up with filter paper and weighed. The tissue was then homogenized in 5 times the mass of precooled normal saline. Homogenized tissue samples were centrifuged at 9391.2×g for 5 min to separate the tissue homogenate and were stored at −20°C ([39]). After treatment of plasma and tissue homogenate, the obtained supernatant was concentrated by nitrogen blowing and determined by HPLC."}, "[7]": {"test_system": "HepG2 cells", "assay": "Cell cycle by flow cytometry (PI)", "format": "cell-based", "conditions": "5 μg/mL tanshinone IIA equivalent, 24 h, control 28.98%", "description": "The test method was performed according to the method provided with the apoptosis test until two centrifugations were completed, and the supernatant was discarded. Next, 1 mL of ice bath precooled 70% ethanol was added to fix the cells for 24 h at 4°C, then, the fixed cells were centrifuged at 1000×g for 5 min ([36]). After resuspending the cells, the cells were centrifuged and precipitated again, and the supernatant was discarded. A total of 500 μL PI staining solution was added to the cells, and the cells were slowly and sufficiently resuspended and bathed for 30 min in the dark at 37°C. Flow cytometry was completed within 24 h after staining ([37])."}, "[8]": {"design": "method as in PMID 28680091", "conditions": "cited from earlier work"}, "[9]": {"test_system": "HepG2 cells", "assay": "Cell apoptosis by flow cytometry (Annexin V-FITC/PI)", "format": "cell-based", "conditions": "5 μg/mL tanshinone IIA equivalent, 24 h, control 57.33%", "description": "HepG2 cells were seeded in 6-well plates at a density of 2 × 10^5 cells per well for 24 h and treated with tanshinone IIA solution (Free TanIIA) and tanshinone IIA-loaded niosomes (TanIIA-NSVs, Gal-pH-TanIIA-NSVs) at an equivalent tanshinone IIA dose of 5 μg/mL for 24 h. Another group was treated with PBS for the same duration as the control group. After incubation, the cell culture medium was transferred to a 2-mL centrifuge tube, and cells digested by a trypsin-EDTA solution were added to the cell culture medium collected previously. Subsequently, the cells were mixed, transferred to a centrifuge tube, and centrifuged at 1000×g for 5 min ([34]). The supernatant was discarded, and the cells were gently resuspended with PBS and counted. A certain amount of resuspended cells were centrifuged in a similar fashion, the supernatant was discarded (PBS was removed), and 500 μL of binding buffer was added. Then, the cells were gently resuspended, and 5 μL Annexin V-FITC was added. After mixing, 5 μL propidium iodide (PI) staining solution was added to the cells, gently mixed, and incubated for 10 min in the dark at room temperature (20–25°C). Flow cytometry was then performed ([35])."}, "[10]": {"design": "method as in PMID 28680091", "conditions": "cited from earlier work", "remark": "listed apart in the source"}, "[11]": {"conditions": "10 mg/kg tanshinone IIA equivalent, tail vein"}}, "note": "Like-named read-outs stand apart in the source and are kept apart here.", "data": [{"molecule": "Cc1coc2c1C(=O)C(=O)c1c-2ccc2c1CCCC2(C)C", "note": "[Free TanIIA, Tanshinone IIA]", "values": [{"measurement": "Plasma concentration by HPLC", "setting": "[1]; 12 h after injection, 10 mg/kg", "result": "could not be detected"}, {"measurement": "AUC0–t", "setting": "[1]; [11]", "result": "7.70 ± 1.51 (μg/mL)·h"}, {"measurement": "AUC0–∞", "setting": "[1]; [11]", "result": "8.81 ± 1.65 (μg/mL)·h"}, {"measurement": "CL", "setting": "[1]; [11]", "result": "0.284 ± 0.026 (mg)/(μg/mL)/h"}, {"measurement": "Vd", "setting": "[1]; [11]", "result": "1.26 ± 0.09 (mg)/(μg/mL)"}, {"measurement": "half-life", "setting": "[1]; male, rat, plasma, iv, 10 mg/kg tanshinone IIA equivalent, tail vein", "result": "3.09 ± 0.59", "unit": "h"}, {"measurement": "MRT last", "setting": "[1]; male, rat, plasma, iv, 10 mg/kg tanshinone IIA equivalent, tail vein, read-out: MRT0–t", "result": "2.23 ± 0.2", "unit": "h"}, {"measurement": "MRT inf", "setting": "[1]; male, rat, plasma, iv, 10 mg/kg tanshinone IIA equivalent, tail vein, read-out: MRT0–∞", "result": "3.53 ± 0.63", "unit": "h"}, {"measurement": "IC50", "setting": "[2]", "result": 2.44, "unit": "µg/mL"}, {"measurement": "IC50", "setting": "[3]", "result": 2.5, "unit": "µg/mL"}, {"measurement": "IC50", "setting": "[4]", "result": 2.42, "unit": "µg/mL"}, {"measurement": "IC50", "setting": "[5]", "result": 2.26, "unit": "µg/mL"}, {"measurement": "Drug level in kidney tissue", "setting": "[6]", "result": "relatively high drug levels"}, {"measurement": "S phase distribution", "setting": "[7]", "result": 50.53, "unit": "%"}, {"measurement": "Solubility in water", "setting": "[8]", "result": "insolubility in water"}, {"measurement": "Apoptotic rate (early + late apoptosis)", "setting": "[9]", "result": 78.34, "unit": "%"}, {"measurement": "half-life", "setting": "[10]", "result": "short half-life"}]}]}
